Assay: Single oral dose (5 mg/kg) pharmacokinetics of firocoxib in koalas, plasma HPLC, non-compartmental analysis;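 note: healthy adult koalas, three per sex, anaesthetised the day before dosing for cephalic vein catheterisation, with serial blood draws and firocoxib in plasma quantified by HPLC using fluorescence detection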
Settings: for AUC(0-t): AUC0-t; for MRT inf: MRT0-inf; for k el: ke; for concentration at 1 h / concentration at 2 h / concentration at 4 h / concentration at 8 h: koala (Phascolarctos cinereus)
[1] = arithmetic mean, female koalas (n = 3), single oral 5 mg/kg
[2] = arithmetic mean, male koalas (n = 3), single oral 5 mg/kg
[3] = arithmetic mean, n = 6 koalas, single oral 5 mg/kg
[4] = both, plasma, po, 5 mg/kg, arithmetic mean, n = 6 koalas, single oral 5 mg/kg
[5] = both, plasma, po, 5 mg/kg, harmonic mean, n = 6 koalas, single oral 5 mg/kg
[6] = both, plasma, po, 5 mg/kg, median (range), n = 6 koalas, single oral 5 mg/kg
[7] = female, plasma, po, 5 mg/kg, Firocoxib plasma concentration, K4 female, single oral 5 mg/kg
[8] = female, plasma, po, 5 mg/kg, Firocoxib plasma concentration, K5 female, single oral 5 mg/kg
[9] = female, plasma, po, 5 mg/kg, Firocoxib plasma concentration, K6 female, single oral 5 mg/kg
[10] = female, koala, plasma, po, 5 mg/kg, Firocoxib plasma concentration, K4 female, single oral 5 mg/kg
[11] = female, koala, plasma, po, 5 mg/kg, Firocoxib plasma concentration, K5 female, single oral 5 mg/kg
[12] = female, koala, plasma, po, 5 mg/kg, Firocoxib plasma concentration, K6 female, single oral 5 mg/kg
[13] = female, plasma, po, 5 mg/kg, K4 female, single oral 5 mg/kg
[14] = female, plasma, po, 5 mg/kg, K5 female, single oral 5 mg/kg
[15] = female, plasma, po, 5 mg/kg, K6 female, single oral 5 mg/kg
[16] = female, plasma, po, 5 mg/kg, arithmetic mean, female koalas (n = 3), single oral 5 mg/kg
[17] = female, plasma, po, 5 mg/kg, harmonic mean, female koalas (n = 3), single oral 5 mg/kg

Source text: Six mature koalas (3 males, 3 females) with median (range) body weights and ages of 9.2 kg, (7.5 to 9.7 kg) and 4.8 years (4.3 to 9.1 years), respectively, were recruited from the Taronga Zoo colony (Mosman, NSW, Australia). These koalas were clinically normal based on regular physical examinations, haematological and biochemical analyte values. During the study, koalas were housed singly and supplied with various Eucalyptus spp. foliage and water ad-libitum. […] No animals were sacrificed; the animals were returned to the colony immediately after firocoxib administration and blood sampling. In order to minimise stress, intravenous catheterisation for sequential blood sampling was performed under general anaesthesia.
The day prior to drug administration and blood collection, the koalas were anaesthetised with alfaxalone (Alfaxan, Jurox, Pty Ltd, Rutherford, NSW, Australia) at 3 mg/kg administered intramuscularly (i.m.) and maintained under anaesthesia on isoflurane in 100% oxygen via a face mask for placement of a 20 gauge, 1 ¼ inch intravenous catheter into the cephalic vein. A short T-connector extension set (Codan, Santa Ana, CA, USA) and cap was attached to the catheter and flushed with saline. The extension tube, cap and catheter were secured with tape and bandage, for serial blood collection. Blood (5 mL) was collected at the time of anaesthesia in a lithium heparin tube to establish a baseline (t = 0 h).
Firocoxib was administered as a single oral dose of 5 mg/kg as crushed tablets made into a paste with Vetafarm Koala Crittacare (Wagga Wagga, NSW) and water.
Samples were centrifuged at 1500 x g for 10 minutes, within 1 h of collection; the plasma was immediately stored at –80 °C and protected from light until drug quantification. […] Clinical observations for the presence of adverse effects in the animals treated included measurement of vital signs, appetite, body weight, faecal consistency and overall behaviour and mobility.
Quantification of firocoxib and visualisation of metabolites in plasma was achieved by HPLC with fluorescence detection modified from a published method [12]. The HPLC system consisted of a Shimadzu LC-20AT solvent delivery unit, DGU-20A degasser, a SIL-20A HT auto injector, an SPD-20A UV detector and RF-10A XL fluorescence detector (Shimadzu, Rydalmere, NSW, Australia) and column oven (CTO-20A). […] Chromatographic separation was performed with a Supelco, Discovery C18, (25 cm x 4.6 mm, 5 µm) column (Merck KGaA, Darmstadt, Germany) with a 1-mm Opti-guard C18 pre-column (Choice Analytical, Thornleigh, NSW, Australia) at ambient temperature. […] Fluorescence detection excitation and emission wavelengths were 280 nm and 375 nm, respectively.
For sample preparation 200 μL of each of the following: plasma samples collected from koalas administered firocoxib, standards prepared for the standard curves and the QC samples; were extracted twice by mixing with 800 μL of ethyl acetate. The extracted organic portion (1.6 mL) was dried under vacuum in a Speed Vac Concentrator (Thermo Scientific, MA, USA) at 35 °C for 1 h, reconstituted with 100 μL of acetonitrile, and finally 10 μL of the reconstituted sample was injected into the HPLC system.
The concentration of each QC sample was repeated three times with the accuracy and precision calculated on each of the triplicates. The mean accuracy ± standard deviation (SD) were calculated using the formula [13]:
Firocoxib plasma concentrations from the initial oral administration underwent non-compartmental analysis. The peak concentration (Cmax) and the time reached (Tmax) were obtained directly from the measured concentrations. The elimination half-life (t1/2) was determined by ln2/ke where ke is the elimination rate constant which is the inverse slope of the elimination or terminal part of the semi-log curve.

In the case of `CC1(C)OC(=O)C(OCC2CC2)=C1c1ccc(S(C)(=O)=O)cc1` [firocoxib], the “AUC 0-t/AUC0-inf” value (K1 male, single oral 5 mg/kg) is reported as 0.72, the “AUMC 0-inf” value (K1 male, single oral 5 mg/kg) is reported as 56998 ng/mL*h^2 and the Cl/F (K1 male, single oral 5 mg/kg) is reported as 19.0 L/h. The “ka (absorption constant)” value (K1 male, single oral 5 mg/kg) was 0.11 h⁻¹, the “AUC 0-t/AUC0-inf” value (K2 male, single oral 5 mg/kg) was 0.99 and the “AUMC 0-inf” value (K2 male, single oral 5 mg/kg) was 11422 ng/mL*h^2. The Cl/F (K2 male, single oral 5 mg/kg) was 30.5 L/h, the “ka (absorption constant)” value (K2 male, single oral 5 mg/kg) was 0.21 h⁻¹ and the “AUC 0-t/AUC0-inf” value (K3 male, single oral 5 mg/kg) was 0.99. For the same molecule, the “AUMC 0-inf” value (K3 male, single oral 5 mg/kg) was 13436.9 ng/mL*h^2, the Cl/F (K3 male, single oral 5 mg/kg) was 24.6 L/h and the “ka (absorption constant)” value (K3 male, single oral 5 mg/kg) was 0.17 h⁻¹. For the same molecule, the “AUC 0-t/AUC0-inf” value (K4 female, single oral 5 mg/kg) was 0.98, the “AUMC 0-inf” value (K4 female, single oral 5 mg/kg) was 8500.1 ng/mL*h^2 and the Cl/F (K4 female, single oral 5 mg/kg) was 38.5 L/h. For the same molecule, the “ka (absorption constant)” value (K4 female, single oral 5 mg/kg) was 0.43 h⁻¹, the “AUC 0-t/AUC0-inf” value (K5 female, single oral 5 mg/kg) was 0.94 and the “AUMC 0-inf” value (K5 female, single oral 5 mg/kg) was 11402.2 ng/mL*h^2. The Cl/F (K5 female, single oral 5 mg/kg) was 49.2 L/h, the “ka (absorption constant)” value (K5 female, single oral 5 mg/kg) was 0.25 h⁻¹ and the “AUC 0-t/AUC0-inf” value (K6 female, single oral 5 mg/kg) was 0.83. The “AUMC 0-inf” value (K6 female, single oral 5 mg/kg) was 14183.2 ng/mL*h^2, the Cl/F (K6 female, single oral 5 mg/kg) was 87.5 L/h and the “ka (absorption constant)” value (K6 female, single oral 5 mg/kg) was 0.25 h⁻¹. For the same molecule, the “AUC 0-t/AUC0-inf” value [1] was 0.92, the “AUMC 0-inf” value [1] was 11361.8 ng/mL*h^2 and the Cl/F [1] was 58.4 L/h. The ka [1] was 0.28 h⁻¹, the “AUC 0-t/AUC0-inf” value [2] was 0.90 and the “AUMC 0-inf” value [2] was 27285.7 ng/mL*h^2. For the same molecule, the Cl/F [2] was 24.7 L/h, the ka [2] was 0.19 h⁻¹ and the AUMC [3] was 19323.8 ng/mL*h ^ 2. It also gave a Cl/F [3] of 41.6 L/h, a ka [3] of 0.24 h⁻¹ and an AUC(0-inf) (both, plasma, po, 5 mg/kg, AUC0-inf, arithmetic mean, n = 6 koalas, single oral 5 mg/kg) of 1480 ng·h/mL. The AUC(0-inf) (both, plasma, po, 5 mg/kg, AUC0-inf, harmonic mean, n = 6 koalas, single oral 5 mg/kg) was 1080 ng·h/mL, the AUC(0-inf) (both, plasma, po, 5 mg/kg, AUC0-inf, median (range), n = 6 koalas, single oral 5 mg/kg) was 1260 ng·h/mL and the AUC(0-t) [4] was 1310 ng·h/mL. The AUC(0-t) [5] was 974 ng·h/mL, the AUC(0-t) [6] was 1240 ng·h/mL and the Cmax [4] was 141 ng/mL. The Cmax [5] was 79.2 ng/mL, the Cmax [6] was 140 ng/mL and the MRT inf [4] was 12 h. For the same molecule, the MRT inf [5] was 10.7 h, the MRT inf [6] was 12.2 h and the Tmax [4] was 4.33 h. It also gave a Tmax [5] of 3.69 h, a Tmax [6] of 4 h and a Tmax (both, plasma, po, 5 mg/kg, median value, both sexes, koala (6), PO 5 mg/kg) of 4 h. It also gave a Vd/F (both, plasma, po, 5 mg/kg, Vss/F, arithmetic mean, n = 6 koalas, single oral 5 mg/kg) of 674 L, a Vd/F (both, plasma, po, 5 mg/kg, Vss/F, harmonic mean, n = 6 koalas, single oral 5 mg/kg) of 332 L and a Vd/F (both, plasma, po, 5 mg/kg, Vss/F, median (range), n = 6 koalas, single oral 5 mg/kg) of 811 L. It also gave a Vd/F (both, plasma, po, 5 mg/kg, Vz/F, arithmetic mean, n = 6 koalas, single oral 5 mg/kg) of 582 L, a Vd/F (both, plasma, po, 5 mg/kg, Vz/F, harmonic mean, n = 6 koalas, single oral 5 mg/kg) of 230 L and a Vd/F (both, plasma, po, 5 mg/kg, Vz/F, median (range), n = 6 koalas, single oral 5 mg/kg) of 240 L. It also gave a k el [4] of 3.89e-05 s⁻¹, a k el [5] of 2.78e-05 s⁻¹ and a k el [6] of 4.17e-05 s⁻¹. The half-life (both, plasma, po, 5 mg/kg, t1/2, arithmetic mean, n = 6 koalas, single oral 5 mg/kg) was 7 h, the half-life (both, plasma, po, 5 mg/kg, t1/2, harmonic mean, n = 6 koalas, single oral 5 mg/kg) was 5.01 h and the half-life (both, plasma, po, 5 mg/kg, t1/2, median (range), n = 6 koalas, single oral 5 mg/kg) was 5.46 h. It also gave an MRT inf (female, in vivo, po, 5 mg/kg, K6 female, single oral 5 mg/kg) of 26.4 h, a concentration at 1 h [7] of 8.27 ng/mL and a concentration at 2 h [7] of 24.3 ng/mL. The concentration at 4 h [7] was 89.3 ng/mL, the concentration at 8 h [7] was 74.7 ng/mL and the concentration at 1 h [8] was 28.6 ng/mL. The concentration at 2 h [8] was 61.9 ng/mL, the concentration at 4 h [8] was 51.8 ng/mL and the concentration at 8 h [8] was 45.8 ng/mL. The concentration at 1 h [9] was 7.89 ng/mL, the concentration at 2 h [9] was 12.3 ng/mL and the concentration at 4 h [9] was 28.9 ng/mL. The concentration at 8 h [9] was 17.5 ng/mL, the concentration at 0.25 h [10] was 0.78 ng/mL and the concentration at 0.5 h [10] was 1.23 ng/mL. The concentration at 12 h [10] was 40.2 ng/mL, the concentration at 24 h [10] was 3.7 ng/mL and the concentration at 0.25 h [11] was 3.74 ng/mL. The concentration at 0.5 h [11] was 5.88 ng/mL, the concentration at 12 h [11] was 23.3 ng/mL and the concentration at 24 h [11] was 12.8 ng/mL. The concentration at 36 h [11] was 3.83 ng/mL, the concentration at 0.25 h [12] was 3.58 ng/mL and the concentration at 0.5 h [12] was 10.6 ng/mL. It also gave a concentration at 12 h [12] of 13.2 ng/mL, a concentration at 24 h [12] of 3.78 ng/mL and a concentration at 36 h [12] of 7.02 ng/mL. The concentration at 48 h (female, koala, plasma, po, 5 mg/kg, Firocoxib plasma concentration, K6 female, 48 h, single oral 5 mg/kg) was 3.83 ng/mL, the AUC(0-inf) (female, plasma, po, 5 mg/kg, AUC0-inf, K4 female, single oral 5 mg/kg) was 973 ng·h/mL and the AUC(0-inf) (female, plasma, po, 5 mg/kg, AUC0-inf, K5 female, single oral 5 mg/kg) was 868 ng·h/mL. The AUC(0-inf) (female, plasma, po, 5 mg/kg, AUC0-inf, K6 female, single oral 5 mg/kg) was 537 ng·h/mL, the AUC(0-inf) (female, plasma, po, 5 mg/kg, AUC 0-inf, arithmetic mean, female koalas (n = 3), single oral 5 mg/kg) was 793 ng·h/mL and the AUC(0-inf) (female, plasma, po, 5 mg/kg, AUC 0-inf, harmonic mean, female koalas (n = 3), single oral 5 mg/kg) was 742 ng·h/mL. For the same molecule, the AUC(0-t) [13] was 954 ng·h/mL, the AUC(0-t) [14] was 820 ng·h/mL and the AUC(0-t) [15] was 444 ng·h/mL. It also gave an AUC(0-t) [16] of 739 ng·h/mL, an AUC(0-t) [17] of 664 ng·h/mL and a Cmax [13] of 89.3 ng/mL. For the same molecule, the Cmax [14] was 61.9 ng/mL, the Cmax [15] was 28.9 ng/mL and the Cmax [16] was 60.3 ng/mL. The Cmax [17] was 48.4 ng/mL.

From article PMC12483202, “Pharmacokinetic profile of oral firocoxib in the koala (Phascolarctos cinereus)” (PLOS One, 2025)
